In patent publication US20250179073A1, “TRICYCLIC HETEROCYCLE COMPOUNDS AS IAP ANTAGONISTS” (Ascentage Pharma (Suzhou) Co., Ltd., priority 2022, published 2025):
Blank lines part the entries; values can stand above or below the molecule they belong to.

Key:
[1] = test system: MDA-MB-231 cells; assay: Cell proliferation assay (CellTiter-Glo), MDA-MB-231; type: cell-based; settings: Homo sapiens, MDA-MB-231, 72 h, 72 h treatment, Celltiter-Glo luminescence
Method in brief: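 MDA-MB-231 (RPMI-1640/10% FBS) and EVSA-T (MEM/10% FBS) cells, 10000 cells/well, exposed 72 h to compound at […]. Viability read by CellTiter-Glo luminescence after 15 min at room temperature. IC50 from control-normalised curve fitting.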

[2] = test system: EVSA-T cells; assay: Cell proliferation assay (CellTiter-Glo), EVSA-T; type: cell-based; settings: Homo sapiens, EVSA-T, 72 h, 72 h treatment, Celltiter-Glo luminescence
Protocol: Example 238: Cell Proliferation Assay
MDA-MB-231 and EVSA-T cells (10000 cells/well) were plated onto 96-well plates (Corning, Cat #3917) in 95 μL of medium (RPMI-1640 containing 10% FBS and MEM containing 10% FBS, respectively). Compounds with various concentrations ([…]) were added to the wells. After treatment for 72 h, 30 μL of Celltiter-Glo reagent (Promega, Cat #G7573) was added and incubated at room temperature for 15 min, then the luminescent signal was determined using a microplate reader (Biotek, SynergyH1). The inhibitor dose-response curves were analyzed using normalized IC50 regression curve fitting with control based normalization.

SMILES: C[C@@H]1CN(CC(=O)N2CC(C)(C)c3c2cc(Cc2ccc(F)cc2)c2ncc(Cl)n32)[C@@H](CN2CCOC[C@H]2C)CN1 [Compound 118, 1-(1-chloro-4-(4-fluorobenzyl)-8,8-dimethyl-7,8-dihydro-6H-imidazo[1,2-a]pyrrolo[2,3-e]pyridin-6-yl)-2-((2R,5R)-5-methyl-2-(((R)-3-methylmorpholino)methyl)piperazin-1-yl)ethan-1-one]
IC50 [1]: 120 nM | IC50 [2]: 10 nM

SMILES: C[C@@H]1CN(CC(=O)N2CC(C)(C)c3c2cc(Cc2ccc(F)cc2)c2nc(CO)cn32)[C@@H](CN2CCOC[C@H]2C)CN1 [Example 19, 1-(4-(4-fluorobenzyl)-2-(hydroxymethyl)-8,8-dimethyl-7,8-dihydro-6H-imidazo[1,2-a]pyrrolo[2,3-e]pyridin-6-yl)-2-((2R,5R)-5-methyl-2-(((R)-3-methylmorpholino)methyl)piperazin-1-yl)ethan-1-one]
IC50 [1]: 180 nM | IC50 [2]: 21 nM

SMILES: C[C@@H]1CN(CC(=O)N2CC(C)(C)c3c2cc(Cc2ccc(F)cc2)c2nn(CC(C)(C)O)c(=O)n32)[C@@H](CN2C3CCC2COC3)CN1 [Compound 276, 6-(2-((2R,5R)-2-((3-oxa-8-azabicyclo[3.2.1]octan-8-yl)methyl)-5-methylpiperazin-1-yl)acetyl)-4-(4-fluorobenzyl)-2-(2-hydroxy-2-methylpropyl)-8,8-dimethyl-2,6,7,8-tetrahydro-1H-pyrrolo[2,3-e][1,2,4]triazolo[4,3-a]pyridin-1-one]
IC50 [1]: 390 nM

SMILES: C[C@@H]1CN(CC(=O)N2CC(C)(C)c3c2cc(Cc2ccc(F)cc2)c2nnc(C(F)F)n32)[C@@H](CN2CCOC[C@H]2C)CN1 [Compound 157, 1-(1-(difluoromethyl)-4-(4-fluorobenzyl)-8,8-dimethyl-7,8-dihydro-6H-pyrrolo[2,3-e][1,2,4]triazolo[4,3-a]pyridin-6-yl)-2-((2R,5R)-5-methyl-2-(((R)-3-methylmorpholino)methyl)piperazin-1-yl)ethan-1-one]
IC50 [1]: 200 nM

SMILES: C[C@@H]1CN(CC(=O)N2CC(C)(C)c3c2cc(Cc2ccc(F)cc2)c2nc(C(F)(F)F)cn32)[C@@H](CN2CCOC[C@H]2CO)CN1 [Compound 160, 1-(4-(4-fluorobenzyl)-8,8-dimethyl-2-(trifluoromethyl)-7,8-dihydro-6H-imidazo[1,2-a]pyrrolo[2,3-e]pyridin-6-yl)-2-((2R,5R)-2-((3-(hydroxymethyl)morpholino)methyl)-5-methylpiperazin-1-yl)ethan-1-one]
IC50 [1]: 330 nM

SMILES: C[C@@H]1CN(CC(=O)N2CC(C)(C)c3c2cc(Cc2ccc(F)cc2)c2nn(CC(C)(C)O)c(=O)n32)[C@@H](CN2CCOCC2(C)C)CN1 [Compound 277, 6-(2-((2R,5R)-2-((3,3-dimethylmorpholino)methyl)-5-methylpiperazin-1-yl)acetyl)-4-(4-fluorobenzyl)-2-(2-hydroxy-2-methylpropyl)-8,8-dimethyl-2,6,7,8-tetrahydro-1H-pyrrolo[2,3-e][1,2,4]triazolo[4,3-a]pyridin-1-one]
IC50 [1]: 67 nM

SMILES: C[C@@H]1CN(CC(=O)N2CC(C)(C)c3c2cc(Cc2ccc(F)cc2)c2ncsc32)[C@@H](CN2CCOC[C@H]2C)CN1 [Example 27, 1-(4-(4-fluorobenzyl)-8,8-dimethyl-7,8-dihydro-6H-thiazolo[5,4-e]indol-6-yl)-2-((2R,5R)-5-methyl-2-(((R)-3-methylmorpholino)methyl)piperazin-1-yl)ethan-1-one]
IC50 [1]: 260 nM

SMILES: C[C@@H]1CN(CC(=O)N2CC(C)(C)c3c2cc(Cc2ccc(F)cc2)c2nn(CC(C)(C)O)c(=O)n32)[C@@H](CN2CC3CC(C2)O3)CN1 [Compound 286, 6-(2-((2R,5R)-2-((6-oxa-3-azabicyclo[3.1.1]heptan-3-yl)methyl)-5-methylpiperazin-1-yl)acetyl)-4-(4-fluorobenzyl)-2-(2-hydroxy-2-methylpropyl)-8,8-dimethyl-2,6,7,8-tetrahydro-1H-pyrrolo[2,3-e][1,2,4]triazolo[4,3-a]pyridin-1-one]
IC50 [1]: 270 nM

SMILES: C[C@@H]1CN(CC(=O)N2CC(C)(C)c3c2cc(Cc2ccc(F)cc2)n2ccnc32)[C@@H](CN2CCOC[C@H]2C)CN1 [Example 24, 1-(5-(4-fluorobenzyl)-9,9-dimethyl-8,9-dihydro-7H-imidazo[1,2-a]pyrrolo[3,2-c]pyridin-7-yl)-2-((2R,5R)-5-methyl-2-(((R)-3-methylmorpholino)methyl)piperazin-1-yl)ethan-1-one]
IC50 [1]: 240 nM

SMILES: Cc1nccn1C[C@H]1CN[C@H](C)CN1CC(=O)N1CC(C)(C)c2c1cc(Cc1ccc(F)cc1)c1ncnn21 [Compound 91, 1-(4-(4-fluorobenzyl)-8,8-dimethyl-7,8-dihydro-6H-pyrrolo[2,3-e][1,2,4]triazolo[1,5-a]pyridin-6-yl)-2-((2R,5R)-5-methyl-2-((2-methyl-1H-imidazol-1-yl)methyl)piperazin-1-yl)ethan-1-one]
IC50 [1]: 80 nM

SMILES: C[C@@H]1CN(CC(=O)N2CC(C)(C)c3c2cc(S(=O)(=O)c2ccc(F)cc2)c2ncnn32)[C@@H](CN2CCOC[C@H]2C)CN1 [Compound 176, 1-(4-((4-fluorophenyl)sulfonyl)-8,8-dimethyl-7,8-dihydro-6H-pyrrolo[2,3-e][1,2,4]triazolo[1,5-a]pyridin-6-yl)-2-((2R,5R)-5-methyl-2-(((R)-3-methylmorpholino)methyl)piperazin-1-yl)ethan-1-one]
IC50 [1]: 190 nM

SMILES: CNC(=O)c1nc2c(Cc3ccc(F)cc3)cc3c(n2n1)C(C)(C)CN3C(=O)CN1C[C@@H](C)NC[C@@H]1CN1CCOC[C@H]1C [Compound 255, 4-(4-fluorobenzyl)-N,8,8-trimethyl-6-(2-((2R,5R)-5-methyl-2-(((R)-3-methylmorpholino)methyl)piperazin-1-yl)acetyl)-7,8-dihydro-6H-pyrrolo[2,3-e][1,2,4]triazolo[1,5-a]pyridine-2-carboxamide]
IC50 [1]: 580 nM

Molecules with a lower IC50 [1], results first:

IC50 [1]: 18 nM
SMILES: COCc1nc2c(Cc3ccc(F)cc3)cc3c(n2n1)C(C)(C)CN3C(=O)CN1C[C@@H](C)NC[C@@H]1CN1CCOC[C@H]1C [Compound 250, 1-(4-(4-fluorobenzyl)-2-(methoxymethyl)-8,8-dimethyl-7,8-dihydro-6H-pyrrolo[2,3-e][1,2,4]triazolo[1,5-a]pyridin-6-yl)-2-((2R,5R)-5-methy 1-2-(((R)-3-methylmorpholino)methyl)piperazin-1-yl)ethan-1-one]
IC50 [2]: 6.1 nM

IC50 [1]: 15 nM
SMILES: C[C@@H]1CN(CC(=O)N2CC(C)(C)c3c2cc(Cc2ccc(F)cc2)c2nc(N(C)C=O)nn32)[C@@H](CN2CCOC[C@H]2C)CN1 [Compound 241, N-(4-(4-fluorobenzyl)-8,8-dimethyl-6-(2-((2R,5R)-5-methy 1-2-(((R)-3-methylmorpholino)methyl)piperazin-1-yl)acetyl)-7,8-dihydro-6H-pyrrolo[2,3-e][1,2,4]triazolo[1,5-a]pyridin-2-yl)-N-methylformamide]
IC50 [2]: 6.3 nM

IC50 [1]: 26 nM
SMILES: C[C@@H]1CN(CC(=O)N2CC(C)(C)c3c2cc(Cc2ccc(F)cc2F)c2nn(C[C@H]4COCCO4)c(=O)n32)[C@@H](CN2CCOC[C@H]2C)CN1 [Compound 285, 2-(((S)-1,4-dioxan-2-yl)methyl)-4-(2,4-difluorobenzyl)-8,8-dimethyl-6-(2-((2R,5R)-5-methyl-2-(((R)-3-methylmorpholino)methyl)piperazin-1-yl)acetyl)-2,6,7,8-tetrahydro-1H-pyrrolo[2,3-e][1,2,4]triazolo[4,3-a]pyridin-1-one]
IC50 [2]: 4.6 nM

IC50 [1]: 65 nM
SMILES: C[C@@H]1CN(CC(=O)N2CC(C)(C)c3c2cc(Cc2ccc(F)cc2)c2nc(CF)cn32)[C@@H](CN2CCOC[C@H]2C)CN1 [Compound 121, 1-(4-(4-fluorobenzyl)-2-(fluoromethyl)-8,8-dimethyl-7,8-dihydro-6H-imidazo[1,2-a]pyrrolo[2,3-e]pyridin-6-yl)-2-((2R,5R)-5-methyl-2-(((R)-3-methylmorpholino)methyl)piperazin-1-yl)ethan-1-one]
IC50 [2]: 5 nM

IC50 [1]: 52 nM
SMILES: C[C@@H]1CN(CC(=O)N2CC(C)(C)c3c2cc(Cc2ccc(F)cc2)c2ncnn32)[C@@H](CN2Cc3cnccc3C2=O)CN1 [Compound 96, 2-(((2R,5R)-1-(2-(4-(4-fluorobenzyl)-8,8-dimethyl-7,8-dihydro-6H-pyrrolo[2,3-e][1,2,4]triazolo[1,5-a]pyridin-6-yl)-2-oxoethyl)-5-methylpiperazin-2-yl)methyl)-2,3-dihydro-1H-pyrrolo[3,4-c]pyridin-1-one]
IC50 [2]: 5 nM

IC50 [1]: 9 nM
SMILES: C[C@@H]1CN(CC(=O)N2CC(C)(C)c3c2cc(Cc2ccc(F)cc2)c2nn([C@@H]4CCOC4)c(=O)n32)[C@@H](CN2CCOC[C@H]2C)CN1 [Compound 228, 4-(4-fluorobenzyl)-8,8-dimethyl-6-(2-((2R,5R)-5-methyl-2-(((R)-3-methylmorpholino)methyl)piperazin-1-yl)acetyl)-2-((R)-tetrahydrofuran-3-yl)-2,6,7,8-tetrahydro-1H-pyrrolo[2,3-e][1,2,4]triazolo[4,3-a]pyridin-1-one]
IC50 [2]: 2 nM

IC50 [1]: 50 nM
SMILES: C[C@@H]1CN(CC(=O)N2CC(C)(C)c3c2cc(Cc2ccc(F)cc2)c2cnc(C4CCC4)n32)[C@@H](CN2CCOC[C@H]2C)CN1 [Example 6, 1-(1-cyclobutyl-4-(4-fluorobenzyl)-8,8-dimethyl-7,8-dihydro-6H-imidazo[1,5-a]pyrrolo[2,3-e]pyridin-6-yl)-2-((2R,5R)-5-methyl-2-(((R)-3-methylmorpholino)methyl)piperazin-1-yl)ethan-1-one]
